Data from patent US20120253007A1 (The Government of the United States of America, as …, priority 2011, published 2012).

System: leukocyte migration (chemotaxis) stimulated by f-MLP
Experiment: leukocyte chemotaxis assay: leukocyte migration stimulated by f-MLP
Conditions: concentration not given

cyclosporin H
activity in studies involving leukocyte chemotaxis induced by f-MLP (result in words): functionally active | activity in studies involving leukocyte chemotaxis induced by f-MLP (result in words) (listed as purified cyclosporin H): active
